Like-named read-outs stand apart in the source and are kept apart here.
How the values were obtained:
TR3 expression [1] = test: TR3 expression by Northern blotting in MDA-MB-231 cells; type: cell-based; details: 3 h, MM11453 and MM11384 10^−6 M, TPA 100 ng/ml, EGF 200 ng/ml
Method: TR3 is also expressed in both estrogen-dependent ZR-75-1 and in estrogen-independent MDA-MB-231 breast cancer cells (Wu et al. 1997 Mol Cell Bio 17:6598-6608). […] Total RNAs were prepared from MDA-MB-231 cells treated with MM1153 (10^−6 M), MM11384 (10^−6M), TPA (100 ng/ml) or EGF (200 ng/ml) for 3 h. and analyzed by Northern blotting.

[2] = test system: LNCaP prostate cancer cells; test: Colocalization of endogenous TR3 and transfected Bcl-2 in LNCaP cells; type: cell-based; details: TPA 100 ng/ml, 3 h
Method: D. co-localization in cells—First the interaction of endogenous TR3 and transfected Bcl-2 colocalization was identified in cells. The phorbol ester 12-0-tetradecanoyl phorbol-13-acetate (TPA) induces the expression of endogenous TR3 and its mitochondrial localization in LNCaP prostate cancer cells. LNCaP cells were transfected with Bcl-2 expression vector, treated with or without TPA (100 ng/ml) for 3 h, then immunostained with anti-Bcl-2 antibody (Santa Cruz) followed by Cy5-conjugated secondary antibody (Amersham Biosciences), or with mouse monoclonal anti-TR3 antibody followed by Cy3-conjugated secondary antibody (Sigma). Endogenous TR3 and transfected Bcl-2 were visualized using confocal microscopy and images were overlaid. […] TR3 was not detected prior to TPA treatment. […] In TPA-stimulated cells, the distribution patterns of endogenous TR3 and transfected Bcl-2 overlapped extensively in the cytoplasm, colocalizing with Hsp60, a mitochondria-specific protein.

TR3/Bcl-2 interaction = test: Co-IP of endogenous TR3 and Bcl-2 in LNCaP cells; type: cell-based; details: TPA 3 hours
Method: A. co-immunoprecipitation assays—to identify the interaction between TR3 and Bcl-2, a monoclonal antibody was generated against the ligand-binding domain (GBD) of TR3 for co-immunoprecipitation (Co-IP) assays. LNCaP cells were treated with TPA to induce endogenous TR3 expression for 3 hours. Cell extracts were prepared from TPA-treated and non-treated cells and incubated with mouse monoclonal anti-TR3 antibody. Immunoblotting of immunoprecipitates employed anti-Bcl-2 antibody or rabbit polyclonal anti-TR3 anti-body (Active Motif).

TR3 expression [3] = details: human prostate cancer cells; cited from earlier work
MDA-MB-231 cells = test: GFP-TR3 subcellular localization by confocal microscopy in MDA-MB-231 cells; type: cell-based; details: 10^−6 M, 1 hour
Method: Subcellular localization assays—Cells were seeded onto cover-slips in 6-well plates overnight, then transiently transfected with GFP-fusion expression plasmids. After 16 hours, cells were washed with PBS and fixed in 4% paraformaldehyde. For mitochondrial staining, cells were then incubated with anti-Hsp60 goat IgG (Santa Cruz, USA), followed by anti-goat IgG conjugated with Cy3 (Sigma). For cyt c staining, cells were incubated with monoclonal anti-cyt c IgG (PharMingen), followed by anti-mouse IgG conjugated with Cy5 (Amersham). Fluorescent images were collected and analyzed using a MRC-1024 MP laser-scanning confocal microscope (Bio-Rad). Subcellular fractionation assays were performed as described (Li, et al. 2000 Science 289:1159-1164). Briefly, cells (1×10^7 cells) suspended in 0.5 ml hypotonic buffer (5 mM Tris-HCl, pH 7.4, 5 mM KCl, 1.5 mM MgCl2, 0.1 mM EGTA, pH 8.0, and 1 mM DTT) were homogenized and cell extracts were centrifuged at 500×g for 5 min. […]
To study whether the TR3 nuclear-to-mitochondrial targeting pathway also occurs in breast cancer cells, a GFP-TR3 fusion construct was transfected into MDA-MB-231 cells. […] Next, GFP-TR3/ΔDBD was transiently transfected into ZR-75-1 or MDA-MB-231 cells, stained for mitochondria (Hsp60) and cytochrome c (Cyt c), and analyzed by confocal microscopy.

[4] = test system: estrogen-dependent and -independent breast cancer cells; details: estrogen-dependent and -independent cell lines; cited from earlier work
prostate cancer cells = details: cited from earlier work
[5] = test system: lung and breast cancer cells; details: cited from earlier work
TR3 expression [6] = details: lung cancer cells; cited from earlier work
Bcl-2/ΔTM = molecular target: T1, Bcl-2/ΔTM (Homo sapiens, UniProt P10415); test: Mammalian two-hybrid assay in CV-1 cells; type: cell-based; details: Gal-TAD fusion co-expressed with Gal4-DBD-Bcl-2/ΔTM, 48 h
T1 construct: expressed in transfected cells; host or cells: CV-1
Method: (§1) TR3/Bcl-2 interaction assays—Reporter gene assays using NurRE-tk-CAT in CV-1 cells, and GST pull-down assay were described previously (Li, et al. 2000 Science 289, 1159-1164). For the mammalian two-hybrid assays, CV-1 cells were co-transfected with pcDNA-Gal4TAD-TR3 or pcDNA-Gal4TAD-TR3/ΔDBD and pcDNA-Gal4DBD-Bcl-2/ΔTM along with a luciferase reporter gene driven by four copies of the Gal4-binding site. The cells were harvested and reporter gene activity was measured. For Co-IP assays, HEK293T cells were transiently transfected with various expression plasmids using a modified calcium phosphate precipitation method (Wu et al, 1997) in the presence of caspase inhibitors (zVAD-fmk) to prevent degradation of TR3 protein due to apoptosis. Cells were suspended in lysis buffer (50 mM Tris-HCl, PH7.4; 150 mM NaCl; 20 mM EDTA; 1% NP-40; 1 mM PMSF; 50 μg/ml Leupeptin; […]; 0.1 mM Na3VO4; and 1 mM DTT). […] Immunoreactive products were detected by chemiluminescence with an enhanced chemiluminescence system (ECL) (Amersham).
E. Two-hybrid assay—a two-hybrid assay was performed to assess the interaction of TR3 and Bcl-2. […] Reporter gene activity was determined 48 h later and normalized relative to β-gal activity.

Bcl-2 = molecular target: T2, Bcl-2 (Homo sapiens, UniProt P10415); test: GST pull-down assay; type: binding
T2 construct: expressed in transfected cells; host or cells: HEK293T
Method: as §1, with “DTT). Cells extracts were cleared by incubation with the Protein A/G plus Agarose beads (Santa Cruz) and then incubated with appropriate antibody and 30 μl of Protein A or G plus Agarose beads overnight at 4° C.” for “DTT).”
C. in vitro protein binding assays. […] Bound proteins were analyzed by SDS-PAGE autoradiography. ^35S-labeled Bcl-2 was pulled down by GST-TR3 but not by GST. […]

T1 sequence (P10415 1-204 limits assumed, stated change not applied): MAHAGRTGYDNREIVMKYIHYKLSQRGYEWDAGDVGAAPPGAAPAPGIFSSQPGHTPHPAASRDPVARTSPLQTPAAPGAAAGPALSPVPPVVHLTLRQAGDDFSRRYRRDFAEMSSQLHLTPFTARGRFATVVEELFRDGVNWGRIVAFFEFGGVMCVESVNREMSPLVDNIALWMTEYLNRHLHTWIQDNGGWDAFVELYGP
T2 sequence (P10415 whole entry): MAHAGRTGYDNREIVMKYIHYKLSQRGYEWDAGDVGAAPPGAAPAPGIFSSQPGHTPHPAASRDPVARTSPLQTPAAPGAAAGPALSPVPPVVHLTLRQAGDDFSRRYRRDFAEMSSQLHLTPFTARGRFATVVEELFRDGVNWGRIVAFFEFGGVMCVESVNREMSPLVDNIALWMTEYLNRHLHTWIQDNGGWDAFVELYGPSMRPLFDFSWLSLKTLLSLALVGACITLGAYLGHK

For `CCCCCCCCCCCCCC(=O)O[C@@H]1[C@@H](C)[C@@]2(O)[C@@H](C=C(CO)C[C@]3(O)C(=O)C(C)=C[C@@H]23)[C@@H]2C(C)(C)[C@]12OC(C)=O` [TPA, 12-O-tetradecanoyl phorbol-13-acetate], the TR3 expression (TR3 expression [1]) was “induced”, the TR3 immunostaining [2] was “strong TR3 immunostaining” and the “cells demonstrating colocalization of endogenous TR3 and transfected Bcl-2” value [2] was “Approximately 80%”. For the same molecule, the “co-immunoprecipitation of Bcl-2 by anti-TR3 antibody” value (TR3/Bcl-2 interaction) was “specifically co-immunoprecipitated” and the TR3 expression (TR3 expression [3]) was “induced TR3 expression”.
In the case of “EGF: the mitogenic agent epidermal growth factor”, the TR3 expression (TR3 expression [1]) is reported as “induced”.
In the case of `O=C(O)c1cc2ccc(-c3ccc(O)c(C45CC6CC(CC(C6)C4)C5)c3)cc2cc1Cl` [MM11453, 6-[3-(1-adamantyl)-4-hydroxyphenyl]-3-chloro-2-naphthalenecarboxylic acid], the TR3 expression (TR3 expression [1]) is given as “significantly induced”, the GFP-TR3 subcellular localization (MDA-MB-231 cells) is given as “translocated to mitochondria” and the TR3 expression (TR3 expression [3]) is given as “induced TR3 expression”. The “apoptosis of breast cancer cells” value [4] was “effectively induces apoptosis”.
In the case of `Cc1cc2c(cc1/C=C(\Br)C(=O)c1ccc(C(=O)O)cc1)C(C)(C)CCC2(C)C` [MM11384, (Z)-4-[2-bromo-3-(5,6,7,8-tetrahydro-3,5,5,8,8-pentamethyl-2-naphthalenyl)propenoyl]benzoic acid], the TR3 expression (TR3 expression [1]) is given as “induced”, the GFP-TR3 subcellular localization (MDA-MB-231 cells) is given as “translocated to mitochondria” and the TR3 expression (TR3 expression [3]) is given as “induced TR3 expression”.
In the case of `O=C(O)c1ccc2cc(-c3ccc(O)c(C45CC6CC(CC(C6)C4)C5)c3)ccc2c1` [AHPN, 6-[3-(1-adamantyl)-4-hydroxyphenyl]-2-naphthalene carboxylic acid], the “apoptosis of prostate cancer cells” value (prostate cancer cells) is listed as “potently induces apoptosis”, the “apoptosis of lung and breast cancer cells” value [5] is listed as “effectively induce apoptosis” and the TR3 expression (TR3 expression [6]) is listed as “significantly induced”. The “apoptosis of breast cancer cells” value [4] was “effectively induces apoptosis”.
In the case of `CNc1ccc2oc(C[C@H]3O[C@@]4(CC[C@H]3C)O[C@H]([C@H](C)C(=O)c3ccc[nH]3)[C@H](C)C[C@H]4C)nc2c1C(=O)O` [A23187], the TR3 expression (TR3 expression [3]) is listed as “induced TR3 expression”.
With “TR3: orphan receptor TR3, nuclear transcription factor” the “Gal4 reporter gene activity” value (Bcl-2/ΔTM) was “strongly activated”.
In the case of “GST-TR3: GST fusion of TR3 immobilized on glutathione-Sepharose”, the “binding of ^35S-labeled Bcl-2” value (Bcl-2) is reported as “pulled down”.
For `COc1cc([C@@H]2c3cc4c(cc3[C@@H](O[C@@H]3O[C@@H]5CO[C@@H](C)O[C@H]5[C@H](O)[C@H]3O)[C@H]3COC(=O)[C@H]23)OCO4)cc(OC)c1O` [VP-16], the TR3 expression (TR3 expression [3]) is listed as “induced TR3 expression”.

From patent US8273705B2, “Conversion of apoptotic proteins” (The Burnham Institute, priority 2002, dated 2012)
